In patent US9150568B2, “Compositions and methods for modulating FXR” (NOVARTIS AG, priority 2010, dated 2015):

Target: T1, human Farnesoid X Receptor (FXR) ligand binding domain (GST-FXR LBD) (Homo sapiens, UniProt Q96RI1)
T1 construct: purchased Invitrogen
T1 sequence (Q96RI1 193-472 isoform Q96RI1-2): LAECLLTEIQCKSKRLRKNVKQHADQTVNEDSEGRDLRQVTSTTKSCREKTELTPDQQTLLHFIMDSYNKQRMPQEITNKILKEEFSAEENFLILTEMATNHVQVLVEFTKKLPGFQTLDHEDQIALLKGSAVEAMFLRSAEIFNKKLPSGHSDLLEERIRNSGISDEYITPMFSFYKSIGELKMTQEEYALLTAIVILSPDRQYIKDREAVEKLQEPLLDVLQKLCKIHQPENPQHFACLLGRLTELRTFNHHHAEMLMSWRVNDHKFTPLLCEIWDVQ
Assay: Human GST-FXR LBD co-activator interaction assay (HTRF)
Type: biochemical
Settings: GST-FXR LBD / biotin-SRC-1 peptide FRET; response relative to GW4064; read-out: FXR Co-activator interaction assay (EC50)
In short: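 FRET (HTRF) read-out of ligand-induced binding between GST-FXR LBD and an SRC-1 peptide, detected with anti-GST cryptate and streptavidin-XL665 in buffer with 50 mM KF. Response % was normalized to DMSO and to the maximal GW4064 response. EC50 came from a four-parameter fit.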

SMILES | EC50 [nM]
COC(=O)c1ccc(N2C3CC[C@H]2CC(OCc2c(-c4ccccc4C(F)(F)F)noc2C2CC2)C3)c(F)c1 (some centres unmarked) [Example 25-5A] | 280
O=C(O)c1ccc(N2C3CC[C@H]2CC(OCc2c(-c4ccccc4C(F)(F)F)noc2C2CC2)C3)c(F)c1 (some centres unmarked) [Example 25-5B] | 1
COC(=O)c1ccc(N2C3CC[C@H]2CC(OCc2c(-c4ccccc4OC(F)F)noc2C2CC2)C3)c(F)c1 (some centres unmarked) [Example 25-6A] | 9
O=C(O)c1ccc(N2C3CC[C@H]2CC(OCc2c(-c4ccccc4OC(F)F)noc2C2CC2)C3)c(F)c1 (some centres unmarked) [Example 25-6B] | 3
NC(=O)c1ccc(N2C3CC[C@H]2CC(OCc2c(-c4ccccc4OC(F)F)noc2C2CC2)C3)c(F)c1 (some centres unmarked) [Example 27] | 2
O=C(O)c1nsc2cc(N3C4CC[C@H]3CC(OCc3c(-c5ccccc5OC(F)(F)F)noc3C3CC3)C4)ccc12 (some centres unmarked) [Example 28-1B, 6-(3-((5-Cyclopropyl-3-(2-(trifluoromethoxy)phenyl)isoxazol-4-yl)methoxy)-8-azabicyclo[3.2.1]octan-8-yl)benzo[d]isothiazole-3-carboxylic acid] | 0.6
O=C(O)c1cnc2ccc(N3C4CC[C@H]3CC(OCc3c(-c5ccccc5OC(F)(F)F)noc3C3CC3)C4)cn12 (some centres unmarked) [Example 28-2] | 16
O=C(O)c1cnc2cc(N3C4CC[C@H]3CC(OCc3c(-c5ccccc5OC(F)(F)F)noc3C3CC3)C4)ccc2c1 (some centres unmarked) [Example 28-3] | 0.8
Cn1c(C(=O)O)cc2ccc(N3C4CC[C@H]3CC(OCc3c(-c5ccccc5OC(F)(F)F)noc3C3CC3)C4)cc21 (some centres unmarked) [Example 28-4] | 2
O=C(O)c1ccc(N2C3CC[C@H]2CC(OCc2c(-c4ccccc4OC(F)(F)F)noc2C2CC2)C3)cc1 (some centres unmarked) [Example 28-6] | 1.7
O=C(O)C1(c2ccc(N3C4CC[C@H]3CC(OCc3c(-c5ccccc5OC(F)(F)F)noc3C3CC3)C4)cc2)CC1 (some centres unmarked) [Example 28-7] | 21
Cc1c(N2[C@@H]3CC[C@H]2C[C@@H](OCc2c(-c4ccccc4C4CC4)noc2C2CC2)C3)ccc2oc(C(=O)O)cc12 [Example 28-8] | 10.4
Cc1c(N2C3CC[C@H]2CC(OCc2c(-c4ccccc4Cl)noc2C2CC2)C3)ccc2oc(C(=O)O)cc12 (some centres unmarked) [Example 28-9] | 0.3
Cc1c(N2C3CC[C@H]2CC(OCc2c(-c4c(F)cccc4F)noc2C2CC2)C3)ccc2oc(C(=O)O)cc12 (some centres unmarked) [Example 28-10] | 0.9
Cc1c(N2C3CC[C@H]2CC(OCc2c(-c4ccccc4OC(F)(F)F)noc2C2CC2)C3)ccc2oc(C(=O)O)cc12 (some centres unmarked) [Example 28-11] | 1.3
Cc1c(N2C3CC[C@H]2CC(OCc2c(-c4ccccc4C(F)(F)F)noc2C2CC2)C3)ccc2oc(C(=O)O)cc12 (some centres unmarked) [Example 28-12] | 2.8
O=C(O)c1cc2cc(N3C4CC[C@H]3CC(OCc3c(-c5ccccc5OC(F)(F)F)noc3C3CC3)C4)ccc2s1 (some centres unmarked) [Example 28-13] | 7.4
O=C(O)c1cc2cc(N3C4CC[C@H]3CC(OCc3c(-c5ccccc5OC(F)(F)F)noc3C3CC3)C4)ccc2o1 (some centres unmarked) [Example 28-14] | 4.6
O=C(O)c1cc2ccc(N3C4CC[C@H]3CC(OCc3c(-c5ccccc5OC(F)(F)F)noc3C3CC3)C4)cc2o1 (some centres unmarked) [Example 28-15] | 3.4
Cn1nc(C(=O)O)c2cc(N3C4CC[C@H]3CC(OCc3c(-c5ccccc5OC(F)(F)F)noc3C3CC3)C4)ccc21 (some centres unmarked) [Example 28-16] | 63

SMILES | EC50 [nM]
O=C(O)c1cnc2c(N3C4CC[C@H]3CC(OCc3c(-c5ccccc5OC(F)(F)F)noc3C3CC3)C4)cccc2c1 (some centres unmarked) [Example 28-17] | 9.8
O=C(O)c1noc2cc(N3C4CC[C@H]3CC(OCc3c(-c5ccccc5OC(F)(F)F)noc3C3CC3)C4)ccc12 (some centres unmarked) [Example 28-18] | 8.2
Cn1c(C(=O)O)cc2cc(N3C4CC[C@H]3CC(OCc3c(-c5ccccc5OC(F)(F)F)noc3C3CC3)C4)ccc21 (some centres unmarked) [Example 28-19] | 1.5
O=C(O)c1nsc2cc(N3C4CC[C@H]3CC(OCc3c(-c5ccccc5C(F)(F)F)noc3C3CC3)C4)ccc12 (some centres unmarked) [Example 28-21] | 2.2
O=C(O)c1nsc2cc(N3[C@@H]4CC[C@H]3C[C@@H](OCc3c(-c5ccccc5C5CC5)noc3C3CC3)C4)ccc12 [Example 28-22] | 0.2
O=C(O)c1nsc2cc(N3C4CC[C@H]3CC(OCc3c(-c5ccccc5OC(F)(F)F)noc3C3CC3)C4)c(F)cc12 (some centres unmarked) [Example 28-23] | 0.5
O=C(O)c1cn2ccc(N3C4CCC3CC(OCc3c(-c5ccccc5OC(F)(F)F)noc3C3CC3)C4)cc2n1 (centres unmarked) [Example 28-24] | 24
Cn1nc(C(=O)O)c2ccc(N3C4CC[C@H]3CC(OCc3c(-c5ccccc5OC(F)(F)F)noc3C3CC3)C4)cc21 (some centres unmarked) [Example 28-25] | 1.1
Cn1nc(C(=O)O)c2ccc(N3[C@@H]4CC[C@H]3C[C@@H](OCc3c(-c5ccccc5C(F)(F)F)noc3C3CC3)C4)cc21 [Example 28-26] | 1.2
O=C(O)c1cc(F)c2nc(N3C4CC[C@H]3CC(OCc3c(C5C6CCCC65)noc3C3CC3)C4)sc2c1 (some centres unmarked) [Example 29-1] | 14
CC12CCCC1C2c1noc(C2CC2)c1COC1CC2CC[C@@H](C1)N2c1nc2c(F)cc(C(=O)O)cc2s1 (some centres unmarked) [Example 29-2] | 8
O=C(O)c1cc(F)c2nc(N3[C@@H]4CC[C@H]3C[C@@H](OCc3c(C5CCCC5)noc3C3CC3)C4)sc2c1 [Example 29-3] | 11
O=C(O)c1cc(F)c2nc(N3[C@@H]4CC[C@H]3C[C@@H](OCc3c(C5CC6(CC6)C5)noc3C3CC3)C4)sc2c1 [Example 29-4] | 11
C[C@@H]1C(c2noc(C3CC3)c2COC2CC3CC[C@@H](C2)N3c2nc3c(F)cc(C(=O)O)cc3s2)C[C@@H]2C[C@H]1C2(C)C (some centres unmarked) [Example 29-5] | 6
O=C(O)c1cc(F)c2nc(N3C4CC[C@H]3CC(OCc3c(C5CCCCC56CC6)noc3C3CC3)C4)sc2c1 (some centres unmarked) [Example 29-6] | 2
O=C(O)c1cc(F)c2nc(N3C4CC[C@H]3CC(OCc3c(C5CCC6CC6C5)noc3C3CC3)C4)sc2c1 (some centres unmarked) [Example 29-7] | 5
Cc1ccccc1-c1noc(C2CC2)c1COC1CC2CC[C@@H](C1)N2c1nc2c(F)cc(C(=O)O)cc2s1 (some centres unmarked) [Example 30-1] | 0.3
Cc1ccccc1-c1noc(C2CC2)c1CO[C@H]1C[C@H]2CC[C@@H](C1)N2c1ccc(C(=O)O)cn1 [Example 30-2] | 10
Cc1cc(C(=O)O)nc(N2C3CC[C@H]2CC(OCc2c(-c4ccccc4C)noc2C2CC2)C3)n1 (some centres unmarked) [Example 30-3] | 15
Cc1ccccc1-c1noc(C2CC2)c1CO[C@H]1C[C@H]2CC[C@@H](C1)N2c1nc2ccc(C(=O)O)cc2s1 [Example 30-4] | 0.7

SMILES | EC50 [nM]
COc1cc(C(=O)O)cc2sc(N3C4CC[C@H]3CC(OCc3c(-c5ccccc5C)noc3C3CC3)C4)nc12 (some centres unmarked) [Example 30-5] | 0.4
O=C(O)c1ccc2nc(N3[C@@H]4CC[C@H]3C[C@@H](OCc3c(-c5ccc(F)cc5)noc3C3CC3)C4)sc2c1 [Example 30-6] | 42
COc1cc(C(=O)O)cc2sc(N3C4CC[C@H]3CC(OCc3c(-c5ccc(F)cc5)noc3C3CC3)C4)nc12 (some centres unmarked) [Example 30-7] | 18
COc1cc(C(=O)O)cc2sc(N3[C@@H]4CC[C@H]3C[C@@H](OCc3c(-c5cccc(F)c5)noc3C3CC3)C4)nc12 [Example 30-8] | 21
O=C(O)c1ccc(N2[C@@H]3CC[C@H]2C[C@@H](OCc2c(-c4cccc(F)c4)noc2C2CC2)C3)nc1 [Example 30-9] | 340
Cc1cc(C(=O)O)nc(N2C3CC[C@H]2CC(OCc2c(-c4cccc(F)c4)noc2C2CC2)C3)n1 (some centres unmarked) [Example 30-10] | 480
COc1cc(C(=O)O)cc2sc(N3C4CC[C@H]3CC(OCc3c(-c5c(C)cccc5F)noc3C3CC3)C4)nc12 (some centres unmarked) [Example 30-11] | 0.3
Cc1cccc(F)c1-c1noc(C2CC2)c1COC1CC2CC[C@@H](C1)N2c1ccc(C(=O)O)cn1 (some centres unmarked) [Example 30-12] | 5
Cc1cc(C(=O)O)nc(N2[C@@H]3CC[C@H]2C[C@@H](OCc2c(-c4c(C)cccc4F)noc2C2CC2)C3)n1 [Example 30-13] | 6
COc1cc(C(=O)O)cc2sc(N3C4CC[C@H]3CC(OCc3c(-c5c(C)cccc5C)noc3C3CC3)C4)nc12 (some centres unmarked) [Example 30-14] | 1.2
Cc1cccc(C)c1-c1noc(C2CC2)c1COC1CC2CC[C@@H](C1)N2c1ccc(C(=O)O)cn1 (some centres unmarked) [Example 30-15] | 9
Cc1cc(C(=O)O)nc(N2C3CC[C@H]2CC(OCc2c(-c4c(C)cccc4C)noc2C2CC2)C3)n1 (some centres unmarked) [Example 30-16] | 24
COc1cc(C(=O)O)cc2sc(N3C4CC[C@H]3CC(OCc3c(-c5c(F)cccc5Cl)noc3C3CC3)C4)nc12 (some centres unmarked) [Example 30-17] | 0.7
O=C(O)c1ccc(N2[C@@H]3CC[C@H]2C[C@@H](OCc2c(-c4c(F)cccc4Cl)noc2C2CC2)C3)nc1 [Example 30-18] | 6
Cc1cc(C(=O)O)nc(N2C3CC[C@H]2CC(OCc2c(-c4c(F)cccc4Cl)noc2C2CC2)C3)n1 (some centres unmarked) [Example 30-19] | 23
COc1cc(C(=O)O)cc2sc(N3[C@@H]4CC[C@H]3C[C@@H](OCc3c(-c5ccccc5Cl)noc3C3CC3)C4)nc12 [Example 30-20] | 0.74
O=C(O)c1ccc(N2C3CC[C@H]2CC(OCc2c(-c4ccccc4Cl)noc2C2CC2)C3)nc1 (some centres unmarked) [Example 30-21] | 3
Cc1cc(C(=O)O)nc(N2C3CC[C@H]2CC(OCc2c(-c4ccccc4Cl)noc2C2CC2)C3)n1 (some centres unmarked) [Example 30-22] | 19
O=C(O)c1cc(F)c2nc(N3[C@@H]4CC[C@H]3C[C@@H](OCc3c(-c5ccccc5C5CC5)noc3C3CC3)C4)sc2c1 [Example 30-23] | 0.4
